Measurements published in patent US11505533B2, “Metabolically stable N-acylaminooxadiazoles useful as antibacterial agents” (MICROBIOTIX, INC., priority 2017, dated 2022).
Read-outs that look alike come from different tables or passages of the source.

Experiments:
MRSA strain BAA-1717 = assay: Neutropenic murine thigh model; type: in vivo, mice; settings: 25 mg/kg PO once, 2 h after infection; CFU counts 24 hrs after dosing; n=4
CYP450, 1A2 [1] = target: T1, CYP450, 1A2 (Homo sapiens, UniProt P05177); settings: 10 µM
T1 sequence (P05177 1-516): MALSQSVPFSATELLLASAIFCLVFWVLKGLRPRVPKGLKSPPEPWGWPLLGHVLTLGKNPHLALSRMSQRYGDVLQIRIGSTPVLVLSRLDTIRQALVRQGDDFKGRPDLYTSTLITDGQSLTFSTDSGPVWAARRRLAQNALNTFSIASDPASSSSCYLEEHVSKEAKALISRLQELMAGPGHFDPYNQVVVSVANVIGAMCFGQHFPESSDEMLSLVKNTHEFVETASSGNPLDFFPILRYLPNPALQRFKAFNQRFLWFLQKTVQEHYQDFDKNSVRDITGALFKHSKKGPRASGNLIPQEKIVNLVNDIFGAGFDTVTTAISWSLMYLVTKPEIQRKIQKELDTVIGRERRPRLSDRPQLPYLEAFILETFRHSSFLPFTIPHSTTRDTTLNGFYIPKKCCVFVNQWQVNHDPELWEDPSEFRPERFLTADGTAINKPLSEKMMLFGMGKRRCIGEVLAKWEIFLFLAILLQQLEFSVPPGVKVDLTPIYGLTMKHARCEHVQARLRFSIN

CYP450, 2C19 [2] = target: T2, CYP450, 2C19 (Homo sapiens, UniProt P33261); settings: 10 µM
T2 sequence (P33261 whole entry): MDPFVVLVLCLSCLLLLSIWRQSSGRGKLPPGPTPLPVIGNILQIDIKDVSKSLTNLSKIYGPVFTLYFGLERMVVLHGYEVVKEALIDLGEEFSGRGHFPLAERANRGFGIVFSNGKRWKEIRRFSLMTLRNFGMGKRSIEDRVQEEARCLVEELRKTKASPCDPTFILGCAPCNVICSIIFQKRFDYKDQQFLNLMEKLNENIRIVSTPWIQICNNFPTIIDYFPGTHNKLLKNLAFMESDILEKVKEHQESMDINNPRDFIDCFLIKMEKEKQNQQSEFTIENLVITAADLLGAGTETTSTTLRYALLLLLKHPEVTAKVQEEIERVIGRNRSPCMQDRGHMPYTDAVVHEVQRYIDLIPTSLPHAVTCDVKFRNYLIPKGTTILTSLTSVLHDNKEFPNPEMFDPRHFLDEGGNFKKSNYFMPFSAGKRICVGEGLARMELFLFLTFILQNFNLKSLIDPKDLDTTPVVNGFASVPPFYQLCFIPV

Adenosine A1 = target: T3, Adenosine A1 (Homo sapiens, UniProt P30542); type: binding; settings: for % Inhibition: 10 μM
T3 sequence (P30542 1-326): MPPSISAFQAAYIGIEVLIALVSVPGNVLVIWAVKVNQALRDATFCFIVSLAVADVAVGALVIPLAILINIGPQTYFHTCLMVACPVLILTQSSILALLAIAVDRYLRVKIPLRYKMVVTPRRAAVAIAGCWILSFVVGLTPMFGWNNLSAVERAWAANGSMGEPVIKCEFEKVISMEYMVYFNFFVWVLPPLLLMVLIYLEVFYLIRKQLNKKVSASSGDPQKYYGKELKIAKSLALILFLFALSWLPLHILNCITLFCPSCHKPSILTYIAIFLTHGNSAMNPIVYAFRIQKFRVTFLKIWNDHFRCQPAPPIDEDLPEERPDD

Potassium Channel hERG [3] = target: T4, Potassium Channel hERG (Homo sapiens, UniProt Q12809); settings: 10 µM
T4 sequence (Q12809 whole entry): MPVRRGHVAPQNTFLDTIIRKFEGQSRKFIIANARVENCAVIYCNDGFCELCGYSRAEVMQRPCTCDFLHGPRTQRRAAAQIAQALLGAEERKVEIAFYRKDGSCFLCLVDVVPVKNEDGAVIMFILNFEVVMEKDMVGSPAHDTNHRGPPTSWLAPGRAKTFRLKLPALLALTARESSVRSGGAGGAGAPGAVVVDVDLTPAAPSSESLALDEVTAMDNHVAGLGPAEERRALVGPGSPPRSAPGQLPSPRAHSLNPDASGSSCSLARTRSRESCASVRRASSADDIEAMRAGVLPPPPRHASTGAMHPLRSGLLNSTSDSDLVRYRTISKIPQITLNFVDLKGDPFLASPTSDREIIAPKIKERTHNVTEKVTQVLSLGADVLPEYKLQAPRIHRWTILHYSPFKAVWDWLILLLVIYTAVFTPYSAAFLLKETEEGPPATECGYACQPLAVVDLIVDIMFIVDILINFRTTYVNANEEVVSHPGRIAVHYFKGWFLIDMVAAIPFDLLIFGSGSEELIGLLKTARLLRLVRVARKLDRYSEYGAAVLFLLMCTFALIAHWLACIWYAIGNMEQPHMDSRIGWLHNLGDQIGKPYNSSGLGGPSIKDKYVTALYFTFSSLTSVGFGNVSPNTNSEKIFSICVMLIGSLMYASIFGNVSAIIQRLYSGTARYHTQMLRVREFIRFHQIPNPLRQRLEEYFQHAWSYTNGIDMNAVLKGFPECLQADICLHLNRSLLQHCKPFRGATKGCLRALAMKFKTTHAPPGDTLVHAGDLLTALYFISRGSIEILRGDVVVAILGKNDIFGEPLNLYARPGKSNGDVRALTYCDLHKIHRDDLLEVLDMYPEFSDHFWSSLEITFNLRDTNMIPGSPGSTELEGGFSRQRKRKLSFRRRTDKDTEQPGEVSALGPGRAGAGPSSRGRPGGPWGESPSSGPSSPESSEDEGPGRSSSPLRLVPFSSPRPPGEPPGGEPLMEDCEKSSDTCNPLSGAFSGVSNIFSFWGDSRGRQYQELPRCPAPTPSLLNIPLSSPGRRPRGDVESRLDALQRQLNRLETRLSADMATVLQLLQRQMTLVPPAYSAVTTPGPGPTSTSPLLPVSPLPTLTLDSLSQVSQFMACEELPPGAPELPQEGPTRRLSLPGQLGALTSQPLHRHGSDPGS

[4] = target: Seritonin (5-Hydroxytryptamine) 5-HT2B (Homo sapiens, UniProt P41595); type: binding; settings: for % Inhibition: 10 μM
Seritonin (5-Hydroxytryptamine) 5-HT2B, sequence (P41595 whole entry): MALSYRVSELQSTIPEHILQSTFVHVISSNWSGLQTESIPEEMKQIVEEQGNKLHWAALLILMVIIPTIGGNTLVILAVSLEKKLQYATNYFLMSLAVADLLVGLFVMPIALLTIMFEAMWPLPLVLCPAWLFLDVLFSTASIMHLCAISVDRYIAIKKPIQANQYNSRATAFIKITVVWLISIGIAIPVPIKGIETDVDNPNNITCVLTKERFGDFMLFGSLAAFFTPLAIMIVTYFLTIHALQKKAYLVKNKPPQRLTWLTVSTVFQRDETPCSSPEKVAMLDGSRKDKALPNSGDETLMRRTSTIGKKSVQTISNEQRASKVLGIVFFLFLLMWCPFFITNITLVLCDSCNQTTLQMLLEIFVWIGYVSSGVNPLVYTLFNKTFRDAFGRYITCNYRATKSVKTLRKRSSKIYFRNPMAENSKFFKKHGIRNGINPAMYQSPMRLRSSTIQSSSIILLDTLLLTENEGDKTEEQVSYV

Histamine, H1 = Histamine, H1 (Homo sapiens, UniProt P35367); type: binding; settings: for % Inhibition: 10 μM
Histamine, H1, sequence (P35367 whole entry): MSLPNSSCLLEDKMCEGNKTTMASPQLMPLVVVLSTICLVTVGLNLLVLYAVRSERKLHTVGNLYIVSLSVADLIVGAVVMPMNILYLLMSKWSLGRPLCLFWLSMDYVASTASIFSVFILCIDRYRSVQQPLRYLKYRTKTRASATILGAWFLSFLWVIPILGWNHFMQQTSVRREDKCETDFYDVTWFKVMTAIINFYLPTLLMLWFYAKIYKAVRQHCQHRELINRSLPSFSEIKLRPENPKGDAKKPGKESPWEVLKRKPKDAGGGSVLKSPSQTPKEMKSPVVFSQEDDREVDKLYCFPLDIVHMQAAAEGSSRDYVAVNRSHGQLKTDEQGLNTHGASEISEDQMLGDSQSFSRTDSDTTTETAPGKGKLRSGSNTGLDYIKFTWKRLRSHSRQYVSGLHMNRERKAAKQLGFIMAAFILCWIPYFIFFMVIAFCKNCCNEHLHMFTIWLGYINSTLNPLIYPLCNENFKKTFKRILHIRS

Adenosine A2A = Adenosine A2A (Homo sapiens, UniProt P29274); type: binding; settings: for % Inhibition: 10 μM
Adenosine A2A, sequence (P29274 whole entry): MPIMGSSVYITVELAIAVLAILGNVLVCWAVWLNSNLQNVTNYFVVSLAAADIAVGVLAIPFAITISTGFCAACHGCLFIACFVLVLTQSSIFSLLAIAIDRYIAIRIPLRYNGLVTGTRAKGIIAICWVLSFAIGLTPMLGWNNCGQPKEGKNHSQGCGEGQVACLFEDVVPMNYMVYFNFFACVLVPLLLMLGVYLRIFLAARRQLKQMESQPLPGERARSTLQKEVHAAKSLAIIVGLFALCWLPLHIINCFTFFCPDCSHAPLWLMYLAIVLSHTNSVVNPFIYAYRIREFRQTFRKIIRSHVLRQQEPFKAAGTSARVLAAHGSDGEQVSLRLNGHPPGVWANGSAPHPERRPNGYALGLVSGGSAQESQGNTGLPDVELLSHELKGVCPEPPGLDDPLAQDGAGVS

CYP450, 3A4 [5] = target: T5, CYP450, 3A4 (Homo sapiens, UniProt P08684); settings: 10 µM
T5 sequence (P08684 whole entry): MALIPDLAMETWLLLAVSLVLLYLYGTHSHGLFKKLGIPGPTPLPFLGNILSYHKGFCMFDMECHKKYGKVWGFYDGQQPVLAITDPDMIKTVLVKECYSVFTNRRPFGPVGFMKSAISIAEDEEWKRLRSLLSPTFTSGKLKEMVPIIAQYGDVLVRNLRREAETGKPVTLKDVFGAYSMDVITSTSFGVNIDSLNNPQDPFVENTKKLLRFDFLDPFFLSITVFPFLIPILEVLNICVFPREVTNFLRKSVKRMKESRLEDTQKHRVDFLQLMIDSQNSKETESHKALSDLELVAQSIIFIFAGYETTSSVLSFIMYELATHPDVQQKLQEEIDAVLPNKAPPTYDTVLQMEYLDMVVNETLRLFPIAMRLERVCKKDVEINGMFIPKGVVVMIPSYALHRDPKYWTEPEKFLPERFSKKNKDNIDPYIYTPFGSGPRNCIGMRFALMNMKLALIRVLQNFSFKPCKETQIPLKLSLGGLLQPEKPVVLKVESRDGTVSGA

CYP450, 2D6 [6] = target: T6, CYP450, 2D6 (Homo sapiens, UniProt P10635); settings: 10 µM
T6 sequence (P10635 whole entry): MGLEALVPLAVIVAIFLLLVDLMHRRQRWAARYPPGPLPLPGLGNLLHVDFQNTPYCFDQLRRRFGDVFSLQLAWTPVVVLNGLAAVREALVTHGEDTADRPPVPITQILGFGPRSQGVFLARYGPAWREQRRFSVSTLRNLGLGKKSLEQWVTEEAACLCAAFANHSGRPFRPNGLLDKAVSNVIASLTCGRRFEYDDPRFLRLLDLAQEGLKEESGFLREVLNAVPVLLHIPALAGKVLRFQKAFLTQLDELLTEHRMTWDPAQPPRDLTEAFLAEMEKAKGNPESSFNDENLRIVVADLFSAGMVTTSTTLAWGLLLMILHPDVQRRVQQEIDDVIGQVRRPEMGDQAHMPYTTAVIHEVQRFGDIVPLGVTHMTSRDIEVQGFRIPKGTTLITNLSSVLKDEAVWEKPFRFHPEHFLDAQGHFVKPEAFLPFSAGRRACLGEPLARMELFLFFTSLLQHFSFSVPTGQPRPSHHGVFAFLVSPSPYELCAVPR

[7] = in vivo
CYP450, 2C9 [8] = target: T7, CYP450, 2C9 (Homo sapiens, UniProt P11712); settings: 10 µM
T7 sequence (P11712 whole entry): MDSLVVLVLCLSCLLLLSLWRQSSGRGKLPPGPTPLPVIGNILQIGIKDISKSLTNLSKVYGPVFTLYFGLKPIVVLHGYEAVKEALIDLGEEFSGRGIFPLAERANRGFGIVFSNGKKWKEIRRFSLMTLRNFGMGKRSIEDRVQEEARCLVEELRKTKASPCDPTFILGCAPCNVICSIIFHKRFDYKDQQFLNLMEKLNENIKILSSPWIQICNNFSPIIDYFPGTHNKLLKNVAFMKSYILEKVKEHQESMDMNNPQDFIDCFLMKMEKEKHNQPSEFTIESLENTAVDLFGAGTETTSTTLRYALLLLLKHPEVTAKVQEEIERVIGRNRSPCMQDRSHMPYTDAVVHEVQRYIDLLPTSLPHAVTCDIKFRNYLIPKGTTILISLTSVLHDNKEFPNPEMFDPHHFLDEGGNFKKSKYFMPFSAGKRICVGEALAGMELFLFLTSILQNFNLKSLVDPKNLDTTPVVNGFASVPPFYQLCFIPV

Adrenergic α1A = target: T8, Adrenergic α1A (Rattus norvegicus, UniProt P43140); type: binding; settings: for % Inhibition: 10 μM
T8 sequence (P43140 1-466): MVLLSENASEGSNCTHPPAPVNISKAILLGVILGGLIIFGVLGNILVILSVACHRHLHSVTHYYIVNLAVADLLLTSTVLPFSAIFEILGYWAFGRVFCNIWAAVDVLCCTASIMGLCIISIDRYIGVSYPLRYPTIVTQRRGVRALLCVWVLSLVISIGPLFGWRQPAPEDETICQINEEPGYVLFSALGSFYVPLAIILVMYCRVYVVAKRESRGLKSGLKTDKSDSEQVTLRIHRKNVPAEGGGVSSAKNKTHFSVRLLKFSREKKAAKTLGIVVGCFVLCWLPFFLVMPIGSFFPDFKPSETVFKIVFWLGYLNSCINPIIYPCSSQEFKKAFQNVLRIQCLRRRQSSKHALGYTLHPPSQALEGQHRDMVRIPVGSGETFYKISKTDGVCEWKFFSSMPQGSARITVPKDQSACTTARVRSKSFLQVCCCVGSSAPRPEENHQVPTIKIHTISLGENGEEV

CYP1A2 = CYP1A2 (Homo sapiens, UniProt P05177)
CYP2C9 = CYP2C9 (Homo sapiens, UniProt P11712)
CYP2C19 = CYP2C19 (Homo sapiens, UniProt P33261)
CYP2C19, sequence (P33261 whole entry): as the sequence (P33261 whole entry) above

CYP3A4 = CYP3A4 (Homo sapiens, UniProt P08684)
CYP450, 1A2 [9] = target: T1, CYP450, 1A2; settings: 10 μM
CYP450, 2C9 [10] = target: T7, CYP450, 2C9; settings: 10 μM
CYP450, 2C19 [11] = target: T2, CYP450, 2C19; settings: 10 μM
CYP450, 2D6 [12] = target: T6, CYP450, 2D6; settings: 10 μM
Potassium Channel hERG [13] = target: T4, Potassium Channel hERG; settings: 10 μM
CYP450, 3A4 [14] = target: T5, CYP450, 3A4; settings: 10 μM

Structure (SMILES)	% Inhibition (Adenosine A1) [%]	% Inhibition [4] [%]	% Inhibition (Histamine, H1) [%]	% Inhibition (Adenosine A2A) [%]	% Inhibition (Adrenergic α1A) [%]	% Inhibition (CYP450, 1A2 [9]) [%]	% Inhibition (CYP450, 2C9 [10]) [%]	% Inhibition (CYP450, 2C19 [11]) [%]	% Inhibition (CYP450, 2D6 [12]) [%]	% Inhibition (Potassium Channel hERG [13]) [%]	% Inhibition (CYP450, 3A4 [14]) [%]	further results
O=C(Nc1nnc(-c2ccc(F)cc2)o1)N1CCc2ccccc2C1 [MBX-4132]	48	53	17	43	24							drop in CFU/g compared to untreated controls (MRSA strain BAA-1717): > 2 log CFU/g; % Inhibition (CYP450, 1A2 [1]): 9%; % Inhibition (CYP450, 2C19 [2]): 44%; % Inhibition (Potassium Channel hERG [3]): 64%; % Inhibition (CYP450, 3A4 [5]): 7%; % Inhibition (CYP450, 2D6 [6]): 10%; elevated single dose tolerability [7]: no effects distinct from vehicle controls; % Inhibition (CYP450, 2C9 [8]): 10%
O=C(Nc1nnc(-c2ccc(F)cc2)o1)c1ccc(Oc2ccccc2)nc1 [MBX-4237]												inhibition at 10 µM (CYP1A2): 1%; inhibition at 10 µM (CYP2C9): 5%; inhibition at 10 µM (CYP2C19): 3%; inhibition at 10 µM (Adenosine A1): 10%; inhibition at 10 µM [4]: -4%; inhibition at 10 µM (Histamine, H1): 6%; inhibition at 10 µM (Adenosine A2A): 6%; inhibition at 10 µM (CYP3A4): 6%; inhibition at 10 µM (Adrenergic α1A): 6%
O=C(Nc1nnc(-c2ccc(F)cc2)o1)c1ccc(OC2CCCCC2)cc1 [MBX-4292]	8	−7	−8	11	9	5	10	9	2	8	4	
O=C(Nc1nnc(-c2ccc(F)cc2)o1)N1CC=C(C(F)(F)F)CC1 [MBX-4347]	−4	−1	22	3	−21	2	4	8	9	0	9	
